Test results published in US20050049282A1, “Process” (priority 2001, published 2005).

How the values were obtained:
[1] = Stability of omeprazole in alcoholic solution under chromatographic conditions; assay type: physicochemical; details: methanol with addition of 0.1% diethylamine
Description: It has previously been reported that alcoholic solution of omeprazole is not stable in room temperature and in daylight. There is thus a risk that one or several decomposition products might co-elute with one of the enantiomers.

[2] = room temperature and daylight; cited from earlier work

## COc1ccc2[nH]c([S+]([O-])Cc3ncc(C)c(OC)c3C)nc2c1 (racemic) [omeprazole, 5-methoxy-2-[[(4-methoxy-3,5-dimethyl-2-pyridinyl)methyl]sulfinyl]-1H-benzimidazole]
[1]
  stability of solution in methanol: stabilizes a solution of omeprazole in methanol to a sufficient degree
[2]
  stability of alcoholic solution: not stable
